Assay results: patent publication US20250333397A1 (REMIX THERAPEUTICS INC., priority 2021, published 2025)
Read-outs that look alike come from different tables or passages of the source.

Key:
Format in all cases: cell-based, human
[1] = system: SMN2 mRNA; experiment: RT-qPCR splicing assay panel, SMN2 canonical junction (CJ) mRNA
Procedure, shortened: (§1)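 A673 (DMEM/10% FBS) or K562 (IMDM/10% FBS) cells treated 24 h at 37 °C with 11-point 3-fold dilutions, top 10 uM final, DMSO ≤0.25%. Lysates read by one-step RT-qPCR for CJ and AJ isoforms, normalized to GAPDH, GUSB or PPIA. ΔΔCt vs DMSO gives RQ via 2^(-ΔΔCt).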

[2] = system: Target C mRNA; experiment: RT-qPCR splicing assay panel, Target C canonical junction (CJ) mRNA
Procedure, shortened: as §1

[3] = system: HTT mRNA; experiment: RT-qPCR splicing assay, HTT canonical (CJ) and alternative (AJ) junction mRNA; details: for AC50: read-out: HTT AJ (AC50, increase in AJ mRNA)
Procedure, shortened: as §1

[4] = system: MYB mRNA; experiment: RT-qPCR splicing assay, MYB canonical (CJ) and alternative (AJ) junction mRNA; details: for AC50: read-out: MYB AJ (AC50, increase in AJ mRNA)
Procedure, shortened: as §1

[5] = Table 3A, A673 or K562 cells, 24 h treatment
[6] = Homo sapiens, Table 4B, gene panel, read-out: SMN2 (IC50, decrease in CJ mRNA levels)
[7] = Homo sapiens, Table 4B, gene panel, read-out: Target C (IC50, decrease in CJ mRNA levels)
[8] = Homo sapiens, 24 h, Table 3B, A673 or K562 cells, 24 h treatment
[9] = Homo sapiens, 24 h, Table 3B, A673 or K562 cells, 24 h treatment, read-out: HTT CJ (IC50, decrease in CJ mRNA)
[10] = Homo sapiens, Table 4B, gene panel, read-out: HTT (IC50, decrease in CJ mRNA levels)
[11] = Homo sapiens, 24 h, Table 3B, A673 or K562 cells, 24 h treatment, read-out: MYB CJ (IC50, decrease in CJ mRNA)
[12] = Homo sapiens, Table 4B, gene panel, read-out: MYB (IC50, decrease in CJ mRNA levels)
[13] = Homo sapiens, canonical junction (CJ) mRNA, RT-qPCR panel, Table 4A, read-out: SMN2, decrease in CJ mRNA levels, IC50
[14] = Homo sapiens, canonical junction (CJ) mRNA, RT-qPCR panel, Table 4A, read-out: Target C, decrease in CJ mRNA levels, IC50
[15] = Homo sapiens, 24 h, Table 3A, A673 or K562 cells, 24 h treatment
[16] = Homo sapiens, 24 h, Table 3A, A673 or K562 cells, 24 h treatment, read-out: HTT CJ (IC50, decrease in CJ mRNA)
[17] = Homo sapiens, canonical junction (CJ) mRNA, RT-qPCR panel, Table 4A, read-out: HTT, decrease in CJ mRNA levels, IC50
[18] = Homo sapiens, 24 h, Table 3A, A673 or K562 cells, 24 h treatment, read-out: MYB CJ (IC50, decrease in CJ mRNA)
[19] = Homo sapiens, canonical junction (CJ) mRNA, RT-qPCR panel, Table 4A, read-out: MYB, decrease in CJ mRNA levels, IC50

Row | IC50 [1, 13] [nM] | IC50 [2, 14] [nM] | IC50 [3, 16] [nM] | IC50 [3, 17] [nM] | IC50 [4, 18] [nM] | IC50 [4, 19] [nM] | SMILES | AC50 [3, 15] [nM] | AC50 [4, 15] [nM] | further results
1 | < 100 | 1000 to 10000 | 100 to 1000 | 100 to 1000 | 1000 to 10000 | 1000 to 10000 | Cc1ccc(-c2ccc(-c3ccc(N4CC[C@@H](NC5CCC5)C4)nn3)c(O)c2)cn1 [Compound 293, 2-{6-[(3R)-3-(cyclobutylamino)pyrrolidin-1-yl]pyridazin-3-yl}-5-(6-methylpyridin-3-yl)phenol] | 100 to 1000 | 100 to 1000 | –
2 | < 100 | 100 to 1000 | 100 to 1000 | 100 to 1000 | 1000 to 10000 | 1000 to 10000 | COc1cc(-c2ccc(-c3ccc(N4CCC(NC5CC6(CCC6)C5)C4)nn3)c(O)c2)cnn1 (centres unmarked) [Compound 353, 5-(6-methoxypyridazin-4-yl)-2-[6-(3-{spiro[3.3]heptan-2-ylamino}pyrrolidin-1-yl)pyridazin-3-yl]phenol] | 100 to 1000 | 1000 to 10000 | –
3 | < 100 | 100 to 1000 | < 100 | < 100 | 100 to 1000 | 100 to 1000 | Cc1cn(-c2cc(O)c(-c3ccc(N4CC[C@@H](NC5CCC5)C4)nn3)cc2F)cn1 [Compound 226, 2-{6-[(3R)-3-(cyclobutylamino)pyrrolidin-1-yl]pyridazin-3-yl}-4-fluoro-5-(4-methylimidazol-1-yl)phenol] | 100 to 1000 | 100 to 1000 | –
4 | < 100 | 100 to 1000 | < 100 | < 100 | 1000 to 10000 | 1000 to 10000 | COc1cc(-c2cc(O)c(-c3ccc(N4CC[C@@](C)(NC5CCC5)C4)nn3)cc2F)cnn1 (single isomer, unassigned) [Compound 308, 2-{6-[3-(cyclobutylamino)-3-methylpyrrolidin-1-yl]pyridazin-3-yl}-4-fluoro-5-(6-methoxypyridazin-4-yl)phenol] | 100 to 1000 | 100 to 1000 | –

The remaining lines, values behind:

Row | SMILES | IC50 [1, 13] [nM] | IC50 [2, 14] [nM] | IC50 [3, 16] [nM] | IC50 [3, 17] [nM] | IC50 [4, 18] [nM] | IC50 [4, 19] [nM] | AC50 [3, 15] [nM] | AC50 [4, 15] [nM] | further results
5 | Oc1cc(-c2cn[nH]c2)ccc1-c1ccc(N2CCC(NC3CC3)C2)nn1 (centres unmarked) [Compound 102, 2-(6-(3-(cyclopropylamino)pyrrolidin-1-yl)pyridazin-3-yl)-5-(1H-pyrazol-4-yl)phenol] | – | – | – | – | – | – | – | – | IC50 ([1]; canonical junction (CJ) mRNA, RT-qPCR panel, Table 4A, read-out: SMN2, decrease in CJ mRNA levels, IC50): 1000 to 10000 nM; IC50 ([2]; canonical junction (CJ) mRNA, RT-qPCR panel, Table 4A, read-out: Target C, decrease in CJ mRNA levels, IC50): > 10000 nM; AC50 [3, 5]: > 10000 nM; IC50 ([3]; Table 3A, A673 or K562 cells, 24 h treatment, read-out: HTT CJ (IC50, decrease in CJ mRNA)): > 10000 nM; IC50 ([3]; canonical junction (CJ) mRNA, RT-qPCR panel, Table 4A, read-out: HTT, decrease in CJ mRNA levels, IC50): > 10000 nM; AC50 [4, 5]: > 10000 nM; IC50 ([4]; Table 3A, A673 or K562 cells, 24 h treatment, read-out: MYB CJ (IC50, decrease in CJ mRNA)): > 10000 nM; IC50 ([4]; canonical junction (CJ) mRNA, RT-qPCR panel, Table 4A, read-out: MYB, decrease in CJ mRNA levels, IC50): > 10000 nM
6 | Cc1nc2cc(O)c(-c3ccc(N4CC[C@@H](N(C)C(C)(C)C)C4)nn3)cc2o1 [Compound 859] | – | – | – | – | – | – | – | – | IC50 [1, 6]: < 100 nM; IC50 [2, 7]: 1000 to 10000 nM; AC50 [3, 8]: 1000 to 10000 nM; IC50 [3, 9]: 1000 to 10000 nM; IC50 [3, 10]: 1000 to 10000 nM; AC50 [4, 8]: 1000 to 10000 nM; IC50 [4, 11]: 1000 to 10000 nM; IC50 [4, 12]: 1000 to 10000 nM
7 | Cc1ncc(-c2ccc(-c3ccc(N4CCC(NC5CCC5)C4)nn3)nc2F)s1 (centres unmarked) [Compound 349] | 100 to 1000 | 1000 to 10000 | 100 to 1000 | 100 to 1000 | 100 to 1000 | 100 to 1000 | 100 to 1000 | 100 to 1000 | –
8 | Cn1ccc2cc(O)c(-c3ccc(N4CC[C@H](NC(C)(C)C)C4)nn3)cc2c1=O [Compound 873] | – | – | – | – | – | – | – | – | IC50 [1, 6]: 100 to 1000 nM; IC50 [2, 7]: 1000 to 10000 nM; AC50 [3, 8]: 1000 to 10000 nM; IC50 [3, 9]: 100 to 1000 nM; IC50 [3, 10]: 100 to 1000 nM; AC50 [4, 8]: 1000 to 10000 nM; IC50 [4, 11]: > 10000 nM; IC50 [4, 12]: > 10000 nM
9 | Cc1ncc(-c2cc(O)c(-c3ccc(N4CC[C@H](N(C)C5CCC5)C4)nn3)cc2F)s1 [Compound 267] | < 100 | < 100 | < 100 | < 100 | < 100 | < 100 | < 100 | < 100 | –
10 | COc1nc(-c2ccc(N3CCC(NC(C)(C)C)C3)nn2)ccc1-c1cnc(C)s1 (centres unmarked) [Compound 355] | < 100 | < 100 | < 100 | < 100 | 100 to 1000 | 100 to 1000 | < 100 | 100 to 1000 | –
